Assay results: PubChem BioAssay (NCI)
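Five compound concentrations were applied to cells in 96-well plates for 48 hours; endpoints were derived by simple linear interpolation of the resulting dose-response curve. At the GI50, growth is halved. TGI denotes the concentration required for complete inhibition of growth.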

How the values were obtained:
Assay in all cases: growth of human tumour cells (NCI), 48 h
MCF7 breast = system: MCF7 breast
MOLT-4 leukemia = system: MOLT-4 leukemia
EKVX NSCLC = system: EKVX NSCLC
HCT-15 colon = system: HCT-15 colon
IGROV1 ovarian = system: IGROV1 ovarian
NCI-H23 lung = system: NCI-H23 lung
HCC-2998 colon = system: HCC-2998 colon
HOP-92 NSCLC = system: HOP-92 NSCLC
K-562 leukemia = system: K-562 leukemia
A498 renal = system: A498 renal
UACC-62 melanoma = system: UACC-62 melanoma
A549 NSCLC = system: A549 NSCLC

Row | Structure (SMILES) | TGI (MCF7 breast) | TGI (MOLT-4 leukemia) | TGI (EKVX NSCLC) | TGI (HCT-15 colon) | TGI (IGROV1 ovarian) | TGI (NCI-H23 lung) | TGI (HCC-2998 colon) | TGI (HOP-92 NSCLC) | TGI (K-562 leukemia) | TGI (A498 renal) | TGI (UACC-62 melanoma) | TGI (A549 NSCLC) | GI50 (EKVX NSCLC) | GI50 (HOP-92 NSCLC)
1 | Cc1cc(OCc2nnc3n2N=C(c2cc(F)c(Cl)cc2Cl)/C(=C/c2ccc(Cl)cc2)S3)ccc1Cl | 87.9 µM | 19.8 µM | > 100 µM | 63.4 µM | 52.8 µM | 79.9 µM | 40.3 µM | 45.8 µM | 56.2 µM | 45.9 µM |  |  |  | 
2 | Cc1cn(CCCCCOC(=O)NC(CCCN=C(N)N)C(=O)O)c(=O)[nH]c1=O (stereo not drawn) | > 100 µM | > 100 µM | > 100 µM | > 100 µM | > 100 µM | > 100 µM | > 100 µM | > 100 µM | > 100 µM | 74.3 µM | > 100 µM | > 100 µM |  | 
3 | Cn1c(=O)c2c(no[n+]2[O-])c2ccccc21 | > 100 µM | 44.4 µM | 46.1 µM | 29.5 µM | 31.4 µM | 34.8 µM | 27.3 µM | 52.2 µM | > 100 µM | 70.2 µM | 31.8 µM | > 100 µM |  | 
4 | Cc1c(CNc2ccc(C(=O)NC(CC(=O)O)C(=O)O)cc2)ccc2nc(N)nc(N)c12 (stereo not drawn) | > 1000 µM | > 1000 µM | > 1000 µM | > 1000 µM | > 1000 µM | > 1000 µM | 21.2 µM | > 1000 µM | > 1000 µM | > 1000 µM | > 1000 µM | > 1000 µM | > 1 mM | > 1 mM
5 | CCO/C=N/NC(=O)CSc1nc2ccc(I)cc2c(=O)n1Cc1ccccc1 | > 100 µM | > 100 µM | > 100 µM | > 100 µM | > 100 µM | > 100 µM | > 100 µM | > 100 µM | > 100 µM | > 100 µM | > 100 µM | > 100 µM |  | 
6 | CC1(C)OC(=C(C#N)C#N)C(C#N)=C1/C=C/c1ccncc1 | 4.28 µM | 4.42 µM | 5.46 µM | 3.79 µM | 4.21 µM | 5.56 µM | 19.5 µM | 5.17 µM | 7.04 µM | 19.4 µM | 3.93 µM | 34.1 µM |  | 
7 | COc1ccc(-c2c(C#N)c(O)n(NS(=O)(=O)c3ccc(C)cc3)c(=O)c2C#N)cc1 | > 100 µM | 66.1 µM | > 100 µM | > 100 µM | > 100 µM |  | > 100 µM | > 100 µM |  | > 100 µM | > 100 µM | > 100 µM |  | 
8 | CC(CCC#N)(CCC#N)C(=O)CC(O)(C(F)(F)F)C(F)(F)F | 21.2 µM | 2.8 µM | 44.1 µM | 10.6 µM | 29.3 µM | 19.6 µM | 31.3 µM | 15.6 µM | 5.87 µM | 40 µM | 19.8 µM | 30.1 µM |  | 
9 | CC(=O)Nc1ccc(-c2nc3cc(Cl)ccc3o2)cc1 | > 50 µM | > 50 µM | > 50 µM | > 50 µM | > 50 µM | > 50 µM | > 50 µM | > 50 µM | > 50 µM | > 50 µM | > 50 µM | > 50 µM |  | 
10 | O=C(NC(CO)Cc1ccc(Oc2cc(CC(CO)NC(=O)OCc3ccccc3)ccc2OC(=O)OCc2ccccc2)cc1)OCc1ccccc1 (stereo not drawn) | 26.8 µM | 22.4 µM | 47.8 µM | > 100 µM | 46.6 µM | 36.1 µM | 30.5 µM | 54.3 µM | 46.7 µM | 50.2 µM |  | > 100 µM |  | 
11 | NC12Oc3cc(O)cc(O)c3C1(c1ccc(Cl)cc1)c1c(O)cc(O)cc1O2 (stereo not drawn) | > 100 µM | > 100 µM | > 100 µM | > 100 µM | > 100 µM | > 100 µM | > 100 µM | > 100 µM | > 100 µM | > 100 µM | > 100 µM | > 100 µM |  | 
12 | CCOC(=O)c1cc(C2(O)CCN(CC(C)CC)C2=O)c(-c2cc(C)no2)[nH]1 (stereo not drawn) | > 100 µM | > 100 µM | > 100 µM | > 100 µM | > 100 µM | > 100 µM | > 100 µM | > 100 µM | > 100 µM | > 100 µM | > 100 µM | > 100 µM |  | 
13 | CCCCCC(/C=C/C1CCC(=O)C1CC#C[Si](C)(C)C)OCc1ccccc1 (stereo not drawn) | 44 µM | > 68.9 µM | 39.8 µM | 30.1 µM | 28.7 µM | 73.6 µM | 48.1 µM | 17.2 µM | 41.8 µM | > 85.8 µM | 30.6 µM | 70.7 µM |  | 
14 | C[C@@]12CCC3C1C=C1C(=O)c4cc(O)ccc4C(=O)[C@]1(O2)[C@@]3(C)C=O | 11.6 µM | 12.9 µM | 22.5 µM | 11.5 µM | 19.6 µM | 13.5 µM | 9.74 µM | 20.8 µM | 12.5 µM | 9.59 µM | 16.6 µM | 27.2 µM |  | 
15 | Cc1ccsc1/C=N/Nc1ccc2ccccc2n1 | 32.3 µM | > 100 µM | > 100 µM | > 100 µM | 79.3 µM | > 100 µM | > 100 µM | 82 µM | > 100 µM | > 100 µM | > 100 µM | > 100 µM |  | 
16 | N#CC1(C#N)C2CCCCC23OC(=N)C1(C#N)C(c1ccccc1)O3 (stereo not drawn) | 49.9 µM | > 100 µM | 60.6 µM | 28.6 µM | 37.2 µM | > 100 µM | 29 µM | 33.6 µM | > 100 µM | 48.9 µM | 49.4 µM | > 100 µM |  | 
17 | CC(/C=N\NC(=S)N1CCCCC1)=N/NC(=S)N1CCCCC1 | > 45.8 µM | > 100 µM | 14.8 µM | 19.5 µM | 8.3 µM | 19.2 µM | 11.7 µM | 7.48 µM | > 100 µM | 3.59 µM | 5.94 µM | 18.5 µM |  | 
18 | S=c1[nH]n2c(COc3cccc(OCc4nnc5sc(=S)[nH]n45)c3)nnc2s1 | > 100 µM | > 100 µM | > 100 µM | > 100 µM | > 100 µM | > 100 µM | > 100 µM | > 100 µM | > 100 µM | > 100 µM | > 100 µM | > 100 µM |  | 
